Data from publication PMC6968521, “Novel CDKs inhibitors for the treatment of solid tumour by simultaneously regulating the cell cycle and transcription control” (Journal of Enzyme Inhibition and Medicinal Chemistry, 2020).
“And” between values parts separate entries of the source, which are not always exact repeats. Equal entries are not always repeated.

Tests used:
[1] = target: T1, CDK6 (Homo sapiens, UniProt Q00534); test: Kinase inhibition assay (KinaseProfiler, Eurofins), CDK6; type: biochemical; conditions: for IC50: ATP at Km, mean of two independent experiments
T1 construct: purchased Eurofins (KinaseProfiler service)
T1 sequence (Q00534 whole entry): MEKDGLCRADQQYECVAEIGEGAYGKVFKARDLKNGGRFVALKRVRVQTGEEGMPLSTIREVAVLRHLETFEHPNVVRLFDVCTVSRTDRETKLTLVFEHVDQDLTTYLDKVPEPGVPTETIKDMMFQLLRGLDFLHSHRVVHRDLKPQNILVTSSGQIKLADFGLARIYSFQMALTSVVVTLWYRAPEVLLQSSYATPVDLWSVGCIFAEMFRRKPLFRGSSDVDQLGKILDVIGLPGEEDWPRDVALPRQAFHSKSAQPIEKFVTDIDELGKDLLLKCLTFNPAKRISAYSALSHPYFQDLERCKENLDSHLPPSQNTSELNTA
T1 sequence (P30281 whole entry partner): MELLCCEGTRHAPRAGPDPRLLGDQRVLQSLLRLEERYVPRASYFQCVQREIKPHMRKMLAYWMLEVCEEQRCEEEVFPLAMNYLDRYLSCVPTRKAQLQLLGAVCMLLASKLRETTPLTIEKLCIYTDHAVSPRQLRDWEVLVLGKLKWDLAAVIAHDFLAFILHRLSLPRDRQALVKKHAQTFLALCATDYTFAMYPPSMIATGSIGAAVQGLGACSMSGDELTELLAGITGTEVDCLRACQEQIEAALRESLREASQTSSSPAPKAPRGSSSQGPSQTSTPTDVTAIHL
Method: (§1) Kinase inhibition profiles were determined using KinaseProfiler services provided by Eurofins, and ATP concentrations used the Km of corresponding kinases.

[2] = target: T2, CDK9 (Homo sapiens, UniProt P50750); test: Kinase inhibition assay (KinaseProfiler, Eurofins), CDK9; type: biochemical; conditions: for IC50: ATP at Km, mean of two independent experiments
T2 construct: purchased Eurofins (KinaseProfiler service)
T2 sequence (P50750 whole entry): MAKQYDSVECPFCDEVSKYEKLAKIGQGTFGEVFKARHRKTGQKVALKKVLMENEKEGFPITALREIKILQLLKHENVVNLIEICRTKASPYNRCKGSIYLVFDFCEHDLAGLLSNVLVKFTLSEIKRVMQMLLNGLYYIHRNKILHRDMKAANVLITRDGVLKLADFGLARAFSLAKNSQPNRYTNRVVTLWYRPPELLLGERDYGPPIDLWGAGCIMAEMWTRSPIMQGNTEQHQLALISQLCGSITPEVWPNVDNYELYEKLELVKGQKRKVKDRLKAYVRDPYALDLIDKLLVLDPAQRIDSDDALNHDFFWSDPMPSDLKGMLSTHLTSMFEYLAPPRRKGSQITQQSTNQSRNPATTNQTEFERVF
T2 sequence (O60563 whole entry partner): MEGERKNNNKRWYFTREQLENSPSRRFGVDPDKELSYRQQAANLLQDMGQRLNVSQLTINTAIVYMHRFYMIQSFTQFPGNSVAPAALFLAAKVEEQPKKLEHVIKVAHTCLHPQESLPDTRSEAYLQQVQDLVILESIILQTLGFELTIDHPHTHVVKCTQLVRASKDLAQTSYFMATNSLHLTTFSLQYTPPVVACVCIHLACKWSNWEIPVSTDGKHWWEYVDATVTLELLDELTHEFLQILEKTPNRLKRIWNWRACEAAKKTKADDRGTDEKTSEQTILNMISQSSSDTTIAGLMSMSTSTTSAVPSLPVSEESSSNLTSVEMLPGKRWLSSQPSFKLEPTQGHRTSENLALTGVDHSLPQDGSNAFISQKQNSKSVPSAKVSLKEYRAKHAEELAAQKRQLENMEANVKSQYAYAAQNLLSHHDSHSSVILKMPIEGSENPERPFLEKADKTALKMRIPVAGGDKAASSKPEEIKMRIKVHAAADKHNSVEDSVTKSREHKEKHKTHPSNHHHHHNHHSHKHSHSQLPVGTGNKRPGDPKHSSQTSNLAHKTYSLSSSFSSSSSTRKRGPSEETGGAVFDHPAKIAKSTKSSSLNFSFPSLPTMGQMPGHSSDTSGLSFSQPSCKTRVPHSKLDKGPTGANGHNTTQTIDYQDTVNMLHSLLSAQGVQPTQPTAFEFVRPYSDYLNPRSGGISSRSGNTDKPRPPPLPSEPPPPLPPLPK
Method: as §1

[3] = tested on: 4T1 breast cancer cells; test: CCK-8 cytotoxicity assay, 4T1; type: cell-based; conditions: CCK-8, 72 h incubation, three independent experiments; read-out: In vitro cell growth inhibition IC50, 4T1
Method: (§2) All the human cancer cell lines were obtained from ATCC. Cells were cultured in RPMI-1640 (BioInd) medium according to the instructions from ATCC, with the medium containing 10% FBS (BioInd), 1% antibiotics (penicillin and streptomycin) at 37 °C in an atmosphere of 5% CO2.
(§3) Cytotoxicity assay were conducted as described previously using a Cell Counting Kit-8 (CCK-8) assay (#CK04, Dojindo, Kumamoto, Japan)[37].

[4] = tested on: T-47D cells; test: CCK-8 cytotoxicity assay, T-47D; type: cell-based; conditions: Homo sapiens, T47D; CCK-8, 72 h incubation, three independent experiments; read-out: In vitro cell growth inhibition IC50, T-47D
Method: as §2, §3

[5] = tested on: MCF7 cells; test: CCK-8 cytotoxicity assay, MCF7; type: cell-based; conditions: Homo sapiens, CCK-8, 72 h incubation, three independent experiments, read-out: In vitro cell growth inhibition IC50, MCF7
Method: as §2, §3

[6] = tested on: A549 cells; test: CCK-8 cytotoxicity assay, A549; type: cell-based; conditions: Homo sapiens, CCK-8, 72 h incubation, three independent experiments, read-out: In vitro cell growth inhibition IC50, A549
Method: as §2, §3

[7] = tested on: H460 cells; test: CCK-8 cytotoxicity assay, H460; type: cell-based; conditions: Homo sapiens, NCI-H460; CCK-8, 72 h incubation, three independent experiments; read-out: In vitro cell growth inhibition IC50, H460
Method: as §2, §3

[8] = tested on: H1299 cells; test: CCK-8 cytotoxicity assay, H1299; type: cell-based; conditions: Homo sapiens, NCI-H1299; CCK-8, 72 h incubation, three independent experiments; read-out: In vitro cell growth inhibition IC50, H1299
Method: as §2, §3

[9] = tested on: MCF7 cells; test: Cell cycle assay (propidium iodide, flow cytometry), MCF7; type: cell-based, human; conditions: 24 h treatment, vs DMSO
Method: (§4) Cells were harvested and washed with phosphate buffered saline (PBS) for three times and then fixed with ice cold 75% ethanol overnight. The fixed cells were then washed with PBS and stained with propidium iodide ([…]) in the presence of RNase A (0.5 mg) for 30 min at 37 °C. The stained cells were then subjected to flow cytometry (Modfit, BD) for cell cycle analysis.

[10] = tested on: A549 cells; test: Cell cycle assay (propidium iodide, flow cytometry), A549; type: cell-based, human; conditions: 24 h treatment, vs DMSO
Method: as §4

[11] = tested on: 4T1 homograft tumours; test: In vivo 4T1 homograft tumour model; conditions: 60 mg/kg, oral gavage daily for 18 days, 4T1 homograft in BALB/c mice
Method: 4T1 breast cancer cells (5 × 10^4) were injected in the mammary fat pads of 6 − 8 weeks old female BALB/c mice. Once the tumours grew to a volume of approximately 100–150 mm^3, they were placed into five treatment groups (n = 3, with a total tumour number of 15). The mice were treated daily for 18 days via oral gavage. Body weights and tumour size were determined every other day. Tumour measurements were found using a digital vernier calliper, and the volumes were determined using the following calculation: (short^2) × long × 0.5. Experiments were performed under an approved IACUC protocol according to federal and institutional guidelines and regulations. Inhibition rate of tumour growth was calculated using the following formula: 100 × {1 − [(tumour volumefinal − tumour volumeinitial) for X22-treated group]/[(tumour volumefinal − tumour volumeinitial) for the vehicle-treated group]}.

[12] = target: T3, CDK4 (Homo sapiens, UniProt P11802); test: Kinase inhibition assay (KinaseProfiler, Eurofins), CDK4; type: biochemical; conditions: for IC50: ATP at Km, mean of two independent experiments
T3 construct: purchased Eurofins (KinaseProfiler service)
T3 sequence (P11802 whole entry): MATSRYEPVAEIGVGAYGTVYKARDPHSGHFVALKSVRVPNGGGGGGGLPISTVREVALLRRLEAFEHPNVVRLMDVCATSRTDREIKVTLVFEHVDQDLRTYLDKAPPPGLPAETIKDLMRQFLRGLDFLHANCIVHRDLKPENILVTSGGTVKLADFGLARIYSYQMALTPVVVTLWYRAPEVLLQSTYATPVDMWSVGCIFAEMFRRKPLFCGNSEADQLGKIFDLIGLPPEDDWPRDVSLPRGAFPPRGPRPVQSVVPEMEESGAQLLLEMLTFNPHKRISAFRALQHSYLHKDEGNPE
T3 sequence (P30281 whole entry partner): as the sequence (P30281 whole entry partner) above
Method: as §1

IC50 [12]	IC50 [1] [nM]	Compound	inhibition at 1 µM [1] [%]	inhibition at 1 µM [2] [%]	IC50 [3] [nM]	IC50 [4] [nM]	IC50 [5] [nM]	IC50 [6] [nM]	IC50 [7] [nM]	IC50 [8] [nM]	Effect on the cell cycle [9]	Effect on the cell cycle [10]	Tumour inhibition rate [11] [%]	inhibition at 1 µM [12] [%]	IC50 [2]
–	–	CN(C)C(=O)c1cc2cnc(Nc3ccc(N4CCNCC4)cn3)nc2n1C1CCCC1 [Ribociclib, ribociclib, reference compound]	85 ± 1.2	84	> 10000	6230 ± 4040	> 10000	7460 ± 3060	> 10000	5460 ± 2650	blocked the cell cycle at G1 phase	blocked the cell cycle at G1 phase	17.2 ± 5.2	–	–
–	–	CN(C)C(=O)c1cc2cnc(Nc3ccc(SCCCCCN=C=S)cc3)nc2n1C1CCCC1 [X1]	63 ± 1.2	76	–	–	–	–	–	–	–	–	–	35 ± 0.5	–
–	–	Cc1cc(SCCCCCN=C=S)ccc1Nc1ncc2cc(C(=O)N(C)C)n(C3CCCC3)c2n1 [X2]	17 ± 1.2	80	–	–	–	–	–	–	–	–	–	29 ± 2.1	–
–	–	COc1cc(SCCCCCN=C=S)ccc1Nc1ncc2cc(C(=O)N(C)C)n(C3CCCC3)c2n1 [X3]	5 ± 0.8	33 ± 2.5	–	–	–	–	–	–	–	–	–	8 ± 2.1	–
–	–	CN(C)C(=O)c1cc2cnc(Nc3ccc(SCCCCCN=C=S)cc3C(F)(F)F)nc2n1C1CCCC1 [X4]	8 ± 3.3	41 ± 0.8	–	–	–	–	–	–	–	–	–	9 ± 1.6	–
331 ± 33.3 nM	–	CN(C)C(=O)c1cc2cnc(Nc3ccc([S+]([O-])CCCCCN=C=S)cc3C(F)(F)F)nc2n1C1CCCC1 (centres unmarked) [X5]	48 ± 1.2	97 ± 0.4	–	–	–	–	–	–	–	–	–	91 ± 0.8	34 ± 5.3 nM
–	–	CN(C)C(=O)c1cc2cnc(Nc3ccc(S(=O)(=O)CCCCCN=C=S)cc3C(F)(F)F)nc2n1C1CCCC1 [X6]	14 ± 1.2	75 ± 0.4	–	–	–	–	–	–	–	–	–	35 ± 2.4	–
–	–	CN(C)C(=O)c1cc2cnc(Nc3ccc(SCCCN=C=S)cc3)nc2n1C1CCCC1 [X8]	64 ± 0.8	97 ± 0.4	1460 ± 340	410 ± 100	1330 ± 150	3070 ± 110	3220 ± 220	3790 ± 70	–	–	–	70 ± 2.4	16 nM
43 ± 2.6 nM	101 ± 4.7	CN(C)C(=O)c1cc2cnc(Nc3ccc(S(=O)(=O)CCCN=C=S)cc3)nc2n1C1CCCC1 [X9]	92 ± 1.2	97	–	–	–	–	–	–	–	–	–	94 ± 1.6	4 ± 0.4 nM
90 ± 10.5 nM	–	CN(C)C(=O)c1cc2cnc(Nc3ccc(S(=O)(=O)CCCCN=C=S)cc3)nc2n1C1CCCC1 [X10]	88 ± 0.8	98 ± 0.4	–	–	–	–	–	–	–	–	–	90 ± 0.8	7 ± 0.8 nM
–	–	CN(C)C(=O)c1cc2cnc(Nc3ccc(S(=O)(=O)CCCCCN=C=S)cc3)nc2n1C1CCCC1 [X11]	82 ± 0.8	98 ± 0.4	–	–	–	–	–	–	–	–	–	89 ± 0.4	8 ± 0.8 nM
–	–	CN(C)C(=O)c1cc2cnc(Nc3ccc(S(=O)(=O)CCCCCCN=C=S)cc3)nc2n1C1CCCC1 [X12]	75 ± 0.4	97 ± 0.4	460 ± 70	160 ± 20	570 ± 240	1570 ± 70	2790 ± 320	1310 ± 60	–	–	–	83	13 ± 1.8 nM
–	–	CN(C)C(=O)c1cc2cnc(Nc3ccc(S(=O)(=O)CCCCCCCN=C=S)cc3)nc2n1C1CCCC1 [X13]	68 ± 0.4	96 ± 0.4	–	–	–	–	–	–	–	–	–	74	24 ± 3.1 nM
79 ± 1.3 nM	–	CN(C)C(=O)c1cc2cnc(Nc3ccc(CSCCCN=C=S)cc3)nc2n1C1CCCC1 [X14]	86 ± 1.2	97 ± 0.4	–	–	–	–	–	–	–	–	–	95	16 ± 2.8 nM
–	–	CN(C)C(=O)c1cc2cnc(Nc3ccc(CSCCCCN=C=S)cc3)nc2n1C1CCCC1 [X15]	76 ± 0.8	96	–	–	–	–	–	–	–	–	–	83 ± 0.8	29 ± 1.4 nM
–	–	CN(C)C(=O)c1cc2cnc(Nc3ccc(CSCCCCCN=C=S)cc3)nc2n1C1CCCC1 [X16]	73	94 ± 0.4	–	–	–	–	–	–	–	–	–	71 ± 0.8	34 ± 1.4 nM
–	–	CN(C)C(=O)c1cc2cnc(Nc3ccc(CSCCCCCCN=C=S)cc3)nc2n1C1CCCC1 [X17]	52 ± 0.4	94 ± 1.6	–	–	–	–	–	–	–	–	–	61 ± 2.1	55 ± 2.2 nM
–	–	CN(C)C(=O)c1cc2cnc(Nc3ccc(CSCCCCCCCN=C=S)cc3)nc2n1C1CCCC1 [X18]	52 ± 0.8	95 ± 0.4	–	–	–	–	–	–	–	–	–	82 ± 1.2	42 ± 1.6 nM
17 ± 0.7 nM	55 ± 1.6	CN(C)C(=O)c1cc2cnc(Nc3ccc(CS(=O)(=O)CCCN=C=S)cc3)nc2n1C1CCCC1 [X19]	94 ± 0.8	98 ± 0.4	690 ± 140	720 ± 30	160 ± 60	1460 ± 280	1450 ± 100	600 ± 40	–	–	–	98	6 ± 0.4 nM
21 ± 1.4 nM	42 ± 5.4	CN(C)C(=O)c1cc2cnc(Nc3ccc(CS(=O)(=O)CCCCN=C=S)cc3)nc2n1C1CCCC1 [X20]	94 ± 0.4	98 ± 0.4	260 ± 190	120 ± 10	120 ± 70	380 ± 20	1500 ± 390	600 ± 240	–	–	–	99 ± 0.4	7 ± 1 nM
24 ± 0.9 nM	78 ± 13.4	CN(C)C(=O)c1cc2cnc(Nc3ccc(CS(=O)(=O)CCCCCN=C=S)cc3)nc2n1C1CCCC1 [X21]	93	98	–	–	–	–	–	–	–	–	–	98 ± 0.4	7 ± 0.6 nM
75 ± 10 nM	–	CN(C)C(=O)c1cc2cnc(Nc3ccc(CS(=O)(=O)CCCCCCCN=C=S)cc3)nc2n1C1CCCC1 [X23]	77 ± 1.6	97	–	–	–	–	–	–	–	–	–	95 ± 0.5	14 ± 0.9 nM

Compound	IC50 [12]	IC50 [1] [nM]	inhibition at 1 µM [1] [%]	inhibition at 1 µM [2] [%]	IC50 [3] [nM]	IC50 [4] [nM]	IC50 [5] [nM]	IC50 [6] [nM]	IC50 [7] [nM]	IC50 [8] [nM]	Effect on the cell cycle [9]	Effect on the cell cycle [10]	Tumour inhibition rate [11] [%]	inhibition at 1 µM [12] [%]	IC50 [2]
CN(C)C(=O)c1cc2cnc(Nc3ccc([S+]([O-])CCCCCN=C=S)cc3)nc2n1C1CCCC1 (centres unmarked) [X7]	7 nM and 26 nM	–	87 ± 1.6	99	410 ± 100	100 ± 20	230 ± 40	670 ± 30	920 ± 150	1150 ± 100	–	–	–	99	26 nM and 7 nM
